Laboratory results taken from ChEMBL document CHEMBL4483862, “Open-source discovery of chemical leads for next-generation chemoprotective antimalarials” (2018).

Tested on: Plasmodium berghei
Assay: Luciferase/luciferin-expressing antifolate-resistant parasites were used to infect a culture of HepG2 cells that were pre-incubated with compounds. Infected hepatocytes emit light due to the luciferase reaction. Assay results are presented as the percent inhibition of light emission compared to control. […]
Assay type: functional
Details: sporozoite; for IC90: read-out: LUCIFERASE INFECTION ASSAY - IC90
[1] = read-out: LUCIFERASE INFECTION ASSAY - IC50

O=[N+]([O-])c1ccsc1Sc1ccc(C(F)(F)F)cn1
IC50 (FFLUC_HILL_SLOPE 11.2, FFLUC_R_SQUARED 0.0124, HEPG2TOX_HILL_SLOPE 0.715, HEPG2TOX_R_SQUARED 0.731, read-out: LUCIFERASE INFECTION ASSAY - IC50): > 10.8 µM | IC90: > 10.8 µM

CCOC(=O)c1oc2ccccc2c1COC(=O)c1ccc(C)c(NC(=O)c2ccco2)c1
IC50 (PBLUC_HILL_SLOPE 12.1, 4.42, PBLUC_R_SQUARED 0.718, 0.471, read-out: LUCIFERASE INFECTION ASSAY - IC50): 6.8 µM | IC90: 7.27 µM

COc1ccccc1N1CCN(c2nc(=O)c3c([nH]2)CCC3)CC1
IC50 (FFLUC_HILL_SLOPE 1.43, FFLUC_R_SQUARED 0.67, PBLUC_HILL_SLOPE 2.78, PBLUC_R_SQUARED 0.645, read-out: LUCIFERASE INFECTION ASSAY - IC50): 0.572 µM | IC90: 1.26 µM

CC(C)NCC(=O)Nc1cccc2c1C(=O)c1ccccc1C2=O
IC50 [1]: 8.29 µM | IC90: > 10.2 µM

OCCCNc1ccc2ncc(-c3cccc(C(F)(F)F)c3)n2n1
IC50 (HEPG2TOX_HILL_SLOPE 0.946, HEPG2TOX_R_SQUARED 0.925, PBLUC_HILL_SLOPE 15.6, PBLUC_R_SQUARED 0.717, read-out: LUCIFERASE INFECTION ASSAY - IC50): 1.05 µM | IC90: 1.21 µM

COc1ccc(OC)c(C(=O)/C=C/c2cc(Br)cs2)c1
IC50 (HEPG2TOX_HILL_SLOPE 14.7, HEPG2TOX_R_SQUARED 0.849, PBLUC_HILL_SLOPE 92.6, PBLUC_R_SQUARED 0.363, read-out: LUCIFERASE INFECTION ASSAY - IC50): 5.05 µM | IC90: 5.17 µM

O=C(CN1CCN(Cc2nc3ccccc3s2)CC1)NN1C(=O)NC2(CCCCC2)C1=O
IC50 [1]: > 10 µM | IC90: > 10 µM

N#Cc1c(SCc2ccc(F)cc2)nc(N2CCOCC2)c2c1CCCC2
IC50 [1]: > 8.61 µM | IC90: > 8.61 µM

N#C/C(=C\Nc1cc(C(F)(F)F)cc(C(F)(F)F)c1)S(=O)(=O)c1ccccc1Cl
IC50 (FFLUC_HILL_SLOPE 5.48, FFLUC_R_SQUARED 0.621, HEPG2TOX_HILL_SLOPE 2.18, HEPG2TOX_R_SQUARED 0.937, read-out: LUCIFERASE INFECTION ASSAY - IC50): > 7.26 µM | IC90: > 7.26 µM

CCOc1ccc(C(=O)Nc2ccc(N(CC)CC)cc2)cc1Br
IC50 (HEPG2TOX_HILL_SLOPE 11.9, HEPG2TOX_R_SQUARED 0.281, PBLUC_HILL_SLOPE 11.4, PBLUC_R_SQUARED 0.34, read-out: LUCIFERASE INFECTION ASSAY - IC50): 2.97 µM | IC90: 3.6 µM

c1ccc(-c2csc3nc(-c4cccnc4)nc(NCC45CC6CC(CC(C6)C4)C5)c23)cc1
IC50 [1]: > 10 µM | IC90: > 10 µM

O=C(Nc1nc2ccccc2[nH]1)c1oc2ccccc2c1CSCc1ccccc1
IC50 (HEPG2TOX_HILL_SLOPE 3.05, HEPG2TOX_R_SQUARED 0.924, PBLUC_HILL_SLOPE 8.31, PBLUC_R_SQUARED 0.524, read-out: LUCIFERASE INFECTION ASSAY - IC50): 3.92 µM | IC90: 5.1 µM

O=C(COC(=O)COc1ccc2c3c(c(=O)oc2c1)CCC3)Nc1ccc(F)c(F)c1F
IC50 [1]: > 10 µM | IC90: > 10 µM

O=S(=O)(c1ccc(NC(=S)N/N=C2\CC(c3ccccc3)Oc3ccccc32)cc1)N1CCOCC1 (stereo not drawn)
IC50 [1]: 8.98 µM | IC90: > 10 µM

C/C(=N\n1c(-c2cccc(Br)c2)cs/c1=N\c1ccc(Cl)cc1Cl)c1ccc2c(c1)OCO2
IC50 (HEPG2TOX_HILL_SLOPE 4.14, HEPG2TOX_R_SQUARED 0.54, PBLUC_HILL_SLOPE 9.69, PBLUC_R_SQUARED 0.311, read-out: LUCIFERASE INFECTION ASSAY - IC50): 9.72 µM | IC90: > 10 µM

CSc1ccc(-c2cn3c(-c4ccc(CO)cc4)cnc3cn2)cc1
IC50 [1]: > 9.5 µM | IC90: > 9.5 µM

CCOc1cccc(-c2cn3c(-c4ccc(C#N)cc4)cnc3cn2)c1
IC50 (PBLUC_HILL_SLOPE 4.27, PBLUC_R_SQUARED 0.47, read-out: LUCIFERASE INFECTION ASSAY - IC50): 6.18 µM | IC90: > 9.69 µM

COc1ccc(-c2cnc3cnc(-c4cccc(NS(C)(=O)=O)c4)cn23)cn1
IC50 [1]: 4.3 µM | IC90: 7.13 µM

O=c1c(Cl)c(Cl)cnn1Cc1nnc(-c2ccc(Cl)cc2)o1
IC50 (FFLUC_HILL_SLOPE 3.65, FFLUC_R_SQUARED 0.9, HEPG2TOX_HILL_SLOPE 4.48, HEPG2TOX_R_SQUARED 0.522, PBLUC_HILL_SLOPE 7.32, PBLUC_R_SQUARED 0.182, read-out: LUCIFERASE INFECTION ASSAY - IC50): 7.44 µM | IC90: > 10 µM

CN(Cc1ccc(Br)s1)c1ncccc1C(N)=O
IC50 [1]: > 2 µM | IC90: > 2 µM

COc1ccc(/C=C2\Oc3c(CN(C)C)c(O)cc(C)c3C2=O)cc1
IC50 [1]: > 9.72 µM | IC90: > 9.72 µM

Cc1nn(-c2ccccn2)c2c1C(c1ccccc1Cl)C1=C(N2)c2ccccc2C1=O (stereo not drawn)
IC50 (PBLUC_HILL_SLOPE 22.1, PBLUC_R_SQUARED 0.617, read-out: LUCIFERASE INFECTION ASSAY - IC50): 9.17 µM | IC90: > 10 µM

Cc1nc(COc2ccc(Cl)cc2)sc1C(=O)OC(C)C(=O)N1CCCC1 (stereo not drawn)
IC50 (PBLUC_HILL_SLOPE 2.47, PBLUC_R_SQUARED 0.699, read-out: LUCIFERASE INFECTION ASSAY - IC50): 4.52 µM | IC90: > 10 µM

NC(CCc1ccccc1)c1csc(Nc2ccc(C(F)(F)F)cn2)n1 (stereo not drawn)
IC50 (PBLUC_HILL_SLOPE 84.8, PBLUC_R_SQUARED 0.093, read-out: LUCIFERASE INFECTION ASSAY - IC50): 4.38 µM | IC90: 4.5 µM

CN1C=C/C(=C/c2ccc3ccccc3[n+]2C)c2ccccc21
IC50 [1]: 1.06 µM | IC90: 5.18 µM

CCCCCn1c(SCC(=O)Nc2ccc(C(C)C)cc2)n[nH]c1=O
IC50 (HEPG2TOX_HILL_SLOPE 1.82, HEPG2TOX_R_SQUARED 0.814, PBLUC_HILL_SLOPE 12.7, PBLUC_R_SQUARED 0.412, read-out: LUCIFERASE INFECTION ASSAY - IC50): 2.89 µM | IC90: 3.43 µM

CC(=O)Nc1cccc(Nc2cc3c(cn2)ncn3CC2CC2)c1
IC50 (HEPG2TOX_HILL_SLOPE 2.64, HEPG2TOX_R_SQUARED 0.966, PBLUC_HILL_SLOPE 2.21, PBLUC_R_SQUARED 0.507, read-out: LUCIFERASE INFECTION ASSAY - IC50): 6.65 µM | IC90: > 10 µM

COc1cc(-c2[nH]nc3nccc(-c4ccc(C(C)C)cc4)c23)cc(OC)c1OC
IC50 (HEPG2TOX_HILL_SLOPE 2.15, HEPG2TOX_R_SQUARED 0.552, PBLUC_HILL_SLOPE 10.1, PBLUC_R_SQUARED 0.355, read-out: LUCIFERASE INFECTION ASSAY - IC50): 8.21 µM | IC90: > 10 µM

CCCCNc1nc(-c2ccccc2)c(C(=O)OCC)cc1C#N
IC50 (HEPG2TOX_HILL_SLOPE 4.31, HEPG2TOX_R_SQUARED 0.989, PBLUC_HILL_SLOPE 14.5, PBLUC_R_SQUARED 0.263, read-out: LUCIFERASE INFECTION ASSAY - IC50): 8.14 µM | IC90: 9.48 µM

Oc1cccc(-c2cnc3cnc(/C=C/c4ccccc4)cn23)c1
IC50 (PBLUC_HILL_SLOPE 3.41, PBLUC_R_SQUARED 0.351, read-out: LUCIFERASE INFECTION ASSAY - IC50): 7.1 µM | IC90: > 10.5 µM

O=c1cc(C(F)(F)F)[nH]n1-c1ccc(OC(F)(F)F)cc1
IC50 (HEPG2TOX_HILL_SLOPE 7.72, HEPG2TOX_R_SQUARED 0.792, PBLUC_HILL_SLOPE 12.3, PBLUC_R_SQUARED 0.186, read-out: LUCIFERASE INFECTION ASSAY - IC50): 9.78 µM | IC90: > 10.6 µM

Cc1cc(C)c(C)c(S(=O)(=O)N2CCN(CC(=O)c3c(N)n(Cc4ccccc4)c(=O)n(C)c3=O)CC2)c1C
IC50 (FFLUC_HILL_SLOPE 17, FFLUC_R_SQUARED 0.51, read-out: LUCIFERASE INFECTION ASSAY - IC50): > 10 µM | IC90: > 10 µM

O=C1C=CC(=O)N1c1ccc(Cl)cc1
IC50 (FFLUC_HILL_SLOPE 21.9, FFLUC_R_SQUARED 0.305, PBLUC_HILL_SLOPE 2.09, PBLUC_R_SQUARED 0.529, read-out: LUCIFERASE INFECTION ASSAY - IC50): 12.2 µM | IC90: > 15.9 µM

ONC(=Nc1cccc(C(F)(F)F)c1)c1ccccc1
IC50 [1]: > 11.8 µM | IC90: > 11.8 µM
